Test [1] relates to AsPC-1 (pancreatic cancer) cell-line. Format: cell-based. The following applies: 72 h. The method, then: (§1) Cancer cell-lines used in this example were SW480 (colon cancer), AsPC-1 (pancreatic cancer), NCI-H23 (lung cancer), NCI-H460 (lung cancer) and HCT116 (colon cancer) cell-lines. Specifically, for HCT116 and NCI-H460 cell-lines, 100 μl of a culture medium containing 2×10^3 cells per well; for SW480 and NCI-H23 cell-lines, 100 μl of a culture medium containing 5×10^3 cells per well; and, for AsPC-1 cell-line, 100 μl of a culture solution containing 1×10^4 cells per well, respectively, were seeded. The seeded cells were cultured for 24 hours for adhesion to the well, and the medium was changed. […] After completion of the culture, a cell counting kit-8 (CCK-8) solution (10 μl/well) was added, and the cells were further cultured for 4 hours in a CO2 incubator maintained at 37° C.

Test [2] deals with SW480 (colon cancer) cell-line. Format: cell-based. The following applies: 72 h. The method, then:
as §1

Test [3] relates to NCI-H460 (lung cancer) cell-line. In words: Cancer inhibitory activity, CCK-8. Format: cell-based. The following applies: NCI-H460, 72 hours treatment. The method, then: as §1
Test [4] concerns HCT116 (colon cancer) cell-line. As to the kind of experiment: Cancer inhibitory activity, CCK-8. Format: cell-based. The following applies: HCT-116, 72 hours treatment. The method, then:
as §1

Test [5] has as its system NCI-H23 (lung cancer) cell-line. In words: Cancer inhibitory activity, CCK-8. Format: cell-based. The following applies: NCI-H23, 72 hours treatment. The procedure: as §1
Another test has as its target mutant KRAS G12V (Homo sapiens, UniProt P01116, G12V). In words: GTP binding assay. Format: biochemical. The following applies: in the presence of H-REV107 protein, FIG. 3a. The procedure: The prepared mixture was incubated with a binding solution (50 mM Hepes (pH 7.5), 100 mM NaCl, 2 mM MgCl2, 1 mM EDTA and 1 mM DTT). The culture was passed through Ni-NTA resin and then bound at 4° C. […] GTP (2,500 cpm/pmol) and […] To terminate binding, a washing buffer (20 mM Tris-HCl (pH 7.4), 100 mM NaCl and 2 mM MgCl2) was added. After washing, the bound protein was eluted using 200 mM imidazole. In this example, bovine serum albumin was used as a negative control. Radioactive GTP bound to the protein was quantified by a liquid scintillation counter, and the results thereof are shown in FIG. 3.

For `CC(C)C[C@H](N)C(=O)N[C@@H](Cc1ccc(O)cc1)C(=O)N[C@@H](CC(=O)O)C(=O)N[C@H](C(=O)N[C@@H](C)C(=O)NCC(=O)N[C@@H](CO)C(=O)N[C@@H](CC(=O)O)C(=O)N[C@@H](CCCCN)C(=O)N[C@@H](Cc1ccc(O)cc1)C(=O)O)C(C)C` [CY101], the GI50 (commonly the concentration that inhibits growth by half) was 417 µM in test [1]; 358 µM in test [2]; “millimolar (mM) range” in test [3]; “millimolar (mM) range” in test [4]; “millimolar (mM) range” in test [5].

B1: H-REV107 protein: H-REV107 (HRAS-like suppressor 3), a growth inhibitory RAS target gene product (protein, UniProt P53816 1-162, looked up)
Phospholipase A and …: MRAPIPEPKPGDLIEIFRPFYRHWAIYVGDGYVVHLAPPSEVAGAGAASVMSALTDKAIVKKELLYDVAGSDKYQVNNKHDDKYSPLPCSKIIQRAEELVGQEVLYKLTSENCEHFVNELRYGVARSDQVRDVIIAASVAGMGLAAMSLIGVMFSRNKRQKQ
Take B1: in the test with mutant KRAS G12V, the “radioactive GTP binding activity of the mutant KRAS G12V” value is reported as “somewhat reduced”.

Source of the values: US20220143152A1, “USE OF PEPTIDE DERIVED FROM H-REV107” (GJMEDI INC., priority 2019, published 2022).
